# Test results as given in article PMC3158126, “Characterization of antigenic variants of hepatitis C virus in immune evasion” (Virology Journal, 2011).
# Assays:
# [1] = test system: PBMC from a HCV-infected patient B3019; assay: T-cell proliferation (tritiated thymidine incorporation) with single wild type and variant peptides; type: cell-based, human; details: flow cytometry analysis of cells stimulated by wild type peptide
# [2] = test system: CD4+ cells from PBMC of HLA-DRB1*15-positive HCV-infected patients; assay: Intracellular cytokine staining and flow cytometry of purified CD4+ cells (Treg phenotypes), HCV+ patients; type: cell-based, human
# Description: (§1) PBMCs were re-suspended at a concentration of 1 × 10^6 /ml in RPMI 1640 tissue culture medium as mentioned above in the description of the proliferation assay. 1 ml aliquots of PBMC were added to a 24-well tissue culture plate containing each wild type NS3_358-375 or variant pool, and medium alone. The concentrations of peptides are 5 μM for NS3_358-375 and 1 μM for each of variant peptides. After culturing for 66 hours, the PBMCs were treated with anti-human CD4 antibodies and magnetic micro-beads (Miltenyi Biotec, Auburn, CA) for positive selection of CD4 cells using a Magnetic Cell Separator (MACS, Miltenyi Biotec). The purity of CD4^+ cells obtained was 99.3% determined by Flow Cytometry.
# (§2) The purified CD4^+ cells were treated with 0.5 ml of fix/permeabilizing solution (BD Pharmingen) for 10 minutes. After washing, the appropriate volume of specific fluorescent-labeled anti-CD25-ECD, anti-IFN-γ-FITC, anti-IL-10-PE, anti-TGF-β1-biotin and streptavidin-CyChrome were added to each of the tubes. One additional tube of CD4^+ cells were incubated with Foxp3-FITC, CD152 (CTLA-4)-PE and CD25-ECD. A tube of pooled CD4^+ cells from each culture was stained with isotype antibodies equivalent to each of the antibodies described above. In addition, four tubes of pooled CD4^+ cells were stained with each of the above antibodies alone as single-color controls which is necessary for color compensation. All tubes were incubated for 30 minutes in dark at room temperature. After washing, cells were re-suspended in 300 μl of wash buffer (BD Pharmingen), and a four color or three-color flow cytometry assay was performed within 24 hours at the Flow Cytometry Service Laboratory of the University of Illinois at Chicago. A total 1 × 10^5 cells were counted to determine the ratio of CD25^+, CD25^- and cytokine producing cells of each CD4^+ population.
# Figure 3 Treg phenotypes induced by peptide NS3_358-375 and variant pools VP1 and VP2. Cell culture adn purification of CD4^+ cells and controls were the same as described in Figure 2. Intracellular staining and four-color flow cytometry using fluorescent-labeled antibodies to human CD25, IFN-γ, TGF-β and IL-10 were performed with purified CD4^+ cells. A pool from each test was used as an isotype control. A: Percentages of CD25^+ gated CD4^+ cells. […] B: Percentages of Th3 and Tr1 cells. Note that 58~67% of the CD25^+ cells were TGF-β^+ (sum of the upper two quadrants). A majority of the CD25^+IL-10^+ cells were also TGF-β^+ (the upper right quadrant). C: Percentages of CD25^- gated CD4^+ cells. D: Percentages of Th3 and Tr1 cells. […] Two representatives of eight experiments are shown. […]
# [3] = test system: CD4+ cells from PBMC of HLA-DRB1*15-positive healthy individuals; assay: Intracellular cytokine staining and flow cytometry of purified CD4+ cells (Treg phenotypes), HCV- healthy subjects; type: cell-based, human; details: median (range), n = 3 HLA-DRB1*15+ healthy subjects; NS3_358-375 5 μM or variant pool 1 μM each peptide, 66 hours
# Description: as §1, §2
# Supplementary file 1743-422X-8-377-S3.DOC: Additional file 3 Figure S2. CD4+CD25+ and CD4+CD25- Tregs of a HCV- healthy individual. Experiments, controls, and data analysis were the same as described in Figure 4. A: Percentages of CD25+ and CD25- gated CD4+ cells. B: Percentages of CD25+ Th3 and Tr1 cells. C: Percentages of CD25- Th3 and Tr1 cells. A single representative of three experiments is shown. Click here for file
# [4] = test system: CD4+ T cells of HCV-infected patient; assay: Foxp3 and CTLA-4 (CD152) expression on CD4+CD25+ and CD4+CD25- cells, flow cytometry; type: cell-based, human
# Description: as §2
# Figure 4 Characteristics of antigen-driven CD25^+ and CD25^- Tregs. Cellular culture and separation of CD4^+ T cells and controls were the same as described in Figure 2. The purified CD4^+ cells were stained with fluorescent-labeled antibodies for human CD25, CTLA-4 and Foxp3 followed by a flow cytometry assay. The effect of peptide NS3_358-375 and variant pools VP1 and VP2 on expression of Foxp3 (A) and CTLA-4 (B) on CD4^+CD25^- (blue) and CD4^+CD25^+ (red) T cells is shown. Median values for each population are shown in the boxes. One representative of two experiments is shown. […]
# HLA-DRB1*1501 molecules = HLA-DRB1*1501 molecules (Homo sapiens, UniProt P01903+P01911); details: cited from earlier work
# Text: Our previous studies identified a CD4 epitope derived from the NS3 protein of HCV, NS3_358-375 [38]. […] Antigenic variants of the Th1 epitope were identified by RT-PCR, cloning and sequencing. Peptides of wild type NS3_358-375 and its variants (single or double amino acid substitutions) were synthesized and used in the current study (Table 1).
# [5] = cells obtained at about 1.5 years of HCV infection, Figure S3
# [6] = median (range), n = 6 HLA-DRB1*15+ HCV+ patients, NS3_358-375 5 μM or variant pool 1 μM each peptide, 66 hours
sequence,measurement,setting,value
VIKGGRHLIFCHSKKKCD [NS3_358-375],proportion of peripheral proliferating cells that were CD4+,[1],greater than 95%
same,ratio of CD4+CD25+ cells (CD25+ gated CD4+ cells),"[2]; Figure 3A, representative experiment, NS3_358-375 5 μM, pools 1 μM each peptide, listed as wild-type peptide",26.0%
same,percentage of CD25-TGF-β+ cells among CD4+CD25- cells,"[2]; Figure 3D, text value (upper two quadrants)",12.7%
same,CD25-IL-10+ Tr1 cells,"[2]; PBMCs from another DRB1*15+ patient infected with HCV over 20 years, Figure S4",25%
same,CD25+ IL-10-secreting Tr1 cells,[2]; [5],2.9%
same,CD25- IL-10-secreting Tr1 cells,[2]; [5],7.6%
same,"CD25+ of CD4+ cells, HCV+ patients",[2]; [6],21.6 (18 - 27) %
same,"IL-10+ of CD4+CD25+ cells, HCV+ patients",[2]; [6],6.51 (3.0 - 11) %
same,"TGFβ+ IL-10+ of CD4+CD25+ cells, HCV+ patients",[2]; [6],7.85 (5.0 - 12) %
same,"TGFβ+ of CD4+CD25+ cells, HCV+ patients",[2]; [6],55.4 (37 - 59) %
same,"CD25+ of CD4+ cells, HCV- subjects",[3],10.1 (10 - 14) %
same,"IL-10+ of CD4+CD25+ cells, HCV- subjects",[3],2.95 (2.6 - 3.2) %
same,"TGFβ+ IL-10+ of CD4+CD25+ cells, HCV- subjects",[3],0.67 (0.5 - 2.5) %
same,"TGFβ+ of CD4+CD25+ cells, HCV- subjects",[3],5.04 (2.0 - 8.5) %
same,expression of Foxp3 and CTLA-4 compared to cells cultured with medium alone,[4]; CD25+ cells,down-regulated
same,Foxp3 level in CD4+CD25+ cells (median value),"[4]; Figure 4A, one representative of two experiments",77.8
same,CTLA-4 (CD152) level on CD4+CD25+ cells (median value),"[4]; Figure 4B, one representative of two experiments",38.4
same,binding to HLA-DRB1*1501,HLA-DRB1*1501 molecules,binds to HLA-DRB1*1501 well
